# Assays:
# [1] = system: E0771 tumor; experiment: Infiltration of immune cells inside E0771 tumor, flow cytometry; type: in vivo, mouse; conditions: 0.37 μg/kg DDA, day 15 post treatment
# Description: FIGS. 5A-D. Infiltration of immune cells inside E0771 tumor. (A-D) These bar graphs represent the ratio between (A) Th1 (CD4+ Tbet+) and Treg (CD4+ Foxp3+), (B) CTL cells (CD8+ Granzym B+) on No CTL cells (CD8+ Granzym b−), (C) macrophage type M1 (CD14+ CCR7+ IFNg+) and type M2 (CD14+ CD206+ IL10+) (D) dendritic cells (CD11c+) and myeloid derived suppressive cells (MDSC: CD11b+CD11clow, LY6C+ly6Gint) infiltrated inside the tumor. The tumors were removed at day 15 post treatment with DDA at 0.37 μg/kg (b) or with the solvent vehicle (control) (a). To observe the cytotoxic CD8 T cells, the tumor suspension was prealably stimulated 2 h in vitro with a cocktail of PMA (50 ng/ml), ionomycine (500 ng/ml) and golgistop (concentration from manufacture BD Pharmagen), then the cells were stained with specific antibodies.
# Tumor dissociation: Freshly excised tumors were trimmed of skin, fat, and necrotic tissue and minced in cold Hanks' medium. The minced tumor pieces were placed in an enzyme solution consisting of collagenase type D at 1 mg/ml and DNase type 1 at 20 μg/ml in Hanks' medium at 37° C. After 30 min of dissociation, the cell suspension was collected, washed with Hank's medium, and then suspended in PBS 1×, 0.5% BSA, 0.02% azide and […] EDTA (Facs medium).
# Analysis of immune cells by flow cytometry. Immune cells from the tumors were stained with the indicated fluorescent-labelled antibodies: anti mouse α-CD4, α-CD8, α-T-bet, α-Foxp3, α-granzyme B, α-PD-1, α-CD44, α-Ly6C, α-Ly6G, α-CD11b, α-CD11c, α-CD206, α-CD86, α-IL10, α-IL-6, α-IL-4 purchased from eBioscience or Biolegend. Intracellular staining for T-bet, Foxp3, IFNg, Granzyme B, IL-10, IL-4 and IL-6 was performed according the manufacturer's protocol from Biolegend. To observe the cytotoxic CD8 T cells, the tumor suspension was prealably stimulated 2 h in vitro with a cocktail of PMA (50 ng/ml), ionomycine (500 ng/ml) and golgistop (concentration from manufacture BD Pharmingen), then the cells were stained with specific antibodies. To set the gates, flow cytometry dot plots were based on comparison with isotype control. Flow cytometry measurements of single-cells suspension were performed on a Fortessa 20X (BD pharmingen) and data were analyzed using FlowJo software.
# [2] = system: tumor side lymph nodes; experiment: T cells in tumor side lymph nodes after DDA, flow cytometry; type: in vivo, mouse
# Description: FIGS. 20A-C. The priming of T cells inside tumor side lymph node is dependent of the LXR expressed by tumor cells. Animals were grafted with tumor cells and treated as described in FIG. 2. At the end of the experiments, tumor side lymph nodes (mesenteric, auxiliary and brachial) were collected, dissociated and stimulated in vitro with 50 ng/ml of PMA (Sigma), 500 ng/ml Ionomycin (Sigma) and 1/1000 of golgi stop (ebiosicence) during 3 h at 370 to analyze by flow cytometry the phenotype of T cells. (A-C) The dots in the graphs represent the relative number of (A) T regulatory cells (CD4+ Foxp3+), (B) Th1 CD4+ cells (CD4+ T-bet+) and (C) cytotoxic CD8+ T cells (CD8+ Granzym B+ IFNγ+). The vehicle was normalized to 1. Graphs are representative of three independent experiments.
# Organ dissociation and flow cytometry. The tumor-side lymph nodes were dissociated manually while for the tumor, gentlemac technology (Miltenyi) was used. Then, the suspension of tumor cells or lymph node were stimulated with 50 ng/ml of PMA (Sigma), 500 ng/ml Ionomycin (Sigma) and 1/1000 of golgi stop (ebiosicence) during 3 h at 37° C. After that, the single cell suspension were stained with the indicated fluorescent-labelled antibodies: anti mouse α-CD4, α-CD8, α-T-bet, α-Foxp3, α-granzyme B, α-PD-1, α-CD44, α-Ly6C, α-Ly6G, α-CD11b, α-CD11c, α-CD206 IL10, α-CD86 as well as live/dead stain purchased from eBioscience or Biolegend. Intracellular staining for T-bet, Foxp3, and Granzyme B, was performed according the manufacturer's protocol from Biolegend. To set the gates, flow cytometry dot plots were based on comparison with isotype control. Flow cytometry measurements of single-cells suspension were performed on a Fortessa 20X (BD pharmingen) and data were analyzed using FlowJo software.
# [3] = system: E0771 sh control or E0771 sh LXR tumors; experiment: Tumor growth and survival, E0771 sh control or E0771 sh LXR tumors, DDA treatment; type: in vivo, mouse
# Description: FIGS. 13A-B. Tumor growth analysis (A) Exponentially growing E0771 sh control or E0771 sh LXR cells were collected, washed twice in PBS and resuspended in PBS (300,000 cells in 100 μl PBS). […] mice were grafted subcutaneously with 300 000 E0771 sh control or E0771 sh LXR tumor cells. […] At day 15 of treatment with DDA or the solvent vehicle, the tumors were removed and the immune cells infiltrated into the tumors were analyzed by flow cytometry (see FIG. 14).
# FIGS. 16A-C. The control of tumor growth and the increase in animal survival upon DDA treatment are dependent on the LXRβ expressed in tumor cells. […] The animals were monitored over time for (A) tumor growth and (B) animal survival. (C) Tumor weights were measured at the end of the experiment.
# [4] = system: B16F10 cells; experiment: Multivesicular bodies and exosome secretion of B16F10 cells treated with DDA; type: cell-based, mouse
# [5] = E0771 expressing LXRβ, 0.37 μg/kg DDA IP every two days (FIG. 16)
smiles,measurement,setting,value
"CC(C)CCCC(C)[C@H]1CCC2C3C[C@@H](NCCc4cnc[nH]4)[C@@]4(O)C[C@@H](O)CC[C@]4(C)C3CC[C@@]21C (stereo partly drawn) [DDA, 5a-hydroxy-6b-[2-(1H-imidazol-4-yl)ethylamino]cholestan-3b-ol]",infiltration into the tumor of inactivated CD8 (No CTL),[1],decreases
same,infiltration into the tumor of macrophage type M2,[1],decreases
same,infiltration into the tumor of myeloid derived suppressive cells (MDSC),[1],decreases
same,infiltration into the tumor of regulatory CD4 Treg cells,[1],decreases
same,infiltration of CD4 Th1 cells inside the tumor,[1],increases
same,infiltration of activated CD8 (CTL) inside the tumor,[1],increases
same,infiltration of dendritic cells (DC: CD11c+) inside the tumor,[1],increases
same,infiltration of macrophage type M1 inside the tumor,[1],increases
same,number of Th1CD4+ cells infiltrated into tumor side lymph nodes,[2]; 0.37 μg/kg DDA (FIG. 20),increases
same,number of Treg cells infiltrated into tumor side lymph nodes,[2]; 0.37 μg/kg DDA (FIG. 20),decreases
same,number of cytotoxic CD8 T cells infiltrated into tumor side lymph nodes,[2]; 0.37 μg/kg DDA (FIG. 20),increases
same,LXRβ dependence of priming of T cells inside tumor side lymph nodes,[2]; shLXRβ vs LXRβ expressing tumors (FIG. 20),dependent of the LXRβ
same,animal survival,[3]; [5],increases animal survival
same,tumor growth,[3]; [5],inhibits tumor growth
same,effect on growth of tumors,"[3]; E0771 sh LXR, 0.37 μg/kg DDA every 2 days (FIG. 13)",abolished
same,growth of tumors,"[3]; E0771 sh control, 0.37 μg/kg DDA every 2 days (FIG. 13)",significantly controls the growth
same,production of exosome secreted into the media,[4]; data not shown,1.5 to 2 fold
same,amount of multivesicular bodies (MVB),[4]; electronic microscopy,stimulates

# — US20230138400A1, “METHODS AND PHARMACEUTICAL COMPOSITIONS FOR REPROGRAMING IMMUNE ENVIRONMENT IN A SUBJECT IN NEED THEREOF” (INSERM (INSTITUT NATIONAL DE LA SANTE ET DE LA RECHERCHE …, priority 2016, published 2023)
